Read-outs that look alike come from different tables or passages of the source.
Legend:
Assay type in all cases: in vivo
[1] = test system: Abutilon theophrasti (ABUTH); assay: Post-emergence herbicidal action against ABUTH; settings: 320 g/ha, visual rating about 3 weeks after treatment vs untreated controls (100% = plants have died, 0% = like control plants)
How it was run: (§1)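 Doses of 320 g/ha or lower, suffixes a, b and c marking different dosages, were applied post-emergence at the one-leaf stage in 600 l/ha water with 0.5% additive. Damage was assessed visually after about 3 weeks in the greenhouse.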

[2] = test system: Pharbitis purpurea (PHBPU); assay: Post-emergence herbicidal action against PHBPU; settings: dosage 320 g/ha
How it was run: as §1

[3] = test system: Polygonum convolvulus (POLCO); assay: Post-emergence herbicidal action against POLCO; settings: dosage 320 g/ha
How it was run: as §1

[4] = test system: Verconica persica (VERPE); assay: Post-emergence herbicidal action against VERPE; settings: 320 g/ha, VERPE
How it was run: as §1

Viola tricolor (VIOTR) [5] = assay: Post-emergence herbicidal action against VIOTR; settings: 320 g/ha
How it was run: as §1

[6] = test system: Triticum aestivum (TRZAS); settings: crop plant compatibility, effect vs untreated controls
How it was run: (§2)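 Test crops were treated 2 to 3 weeks after sowing, once they reached one leaf, by spraying compound in water with 0.5% additive at 600 l/ha. Visual scoring compared them with untreated controls roughly 3 weeks on, and appendices a, b and c denote different doses.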

Zea mays (ZEAMX) [7] = settings: for Post-emergence action against ZEAMX in % (crop plant compatibility): 20 g/ha, effect in comparison to untreated controls
How it was run: as §2

Glycine max (GLXMA) [8] = assay: Post-emergence crop plant compatibility, GLXMA; settings: post-emergence, 20 g/ha, effect in comparison to untreated controls
Description: Seeds of monocotyledonous and dicotyledonous weeds and crop plants are placed in sandy loam in plastic or organic planting pots, covered with soil and cultivated in a greenhouse under controlled growth conditions. 2 to 3 weeks after sowing, the test plants are treated at the one-leaf stage. The compounds of the invention, formulated in the form of wettable powders (WP) or as emulsion concentrates (EC), are then sprayed onto the green parts of the plants as aqueous suspension or emulsion with addition of 0.5% additive at a water application rate of 600 l/ha (converted). After the test plants have been kept in the greenhouse under optimum growth conditions for about 3 weeks, the activity of the preparations is rated visually in comparison to untreated controls. For example, 100% activity=the plants have died, 0% activity=like control plants.
The observed effects on selected crop plants are reported here in comparison to the untreated controls (values in %). The appendices “a”, “b” and “c” give differentiation by dosage used with otherwise the same crop plants tested.

[9] = test system: Abutilon theophrasti (ABUTH); assay: Pre-emergence herbicidal action against ABUTH; settings: Dosage column 320 g/ha (title prints 3200 g/ha); scored visually after about 3 weeks; 100% = plants have died
How it was run: (§3)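 Application rates ran to 320 g/ha or lower, with several dosages tested on the same weeds. The compound, as wettable powder or emulsion concentrate, is sprayed pre-emergence onto soil over sown seeds; greenhouse growth follows, and effect is rated visually after roughly 3 weeks.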

[10] = test system: Alopecurus myosuroides (ALOMY); assay: Pre-emergence herbicidal action against ALOMY; settings: scored visually after about 3 weeks, 100% = plants have died
How it was run: as §3

[11] = test system: Amaranthus retroflexus (AMARE); assay: Pre-emergence herbicidal action against AMARE; settings: visual scoring after about 3 weeks vs untreated controls
How it was run: as §3

Avena fatua (AVEFA) [12] = assay: Pre-emergence herbicidal action against AVEFA; settings: 320 g/ha, visual scoring after about 3 weeks vs untreated controls
How it was run: as §3

[13] = test system: Digitaria sanguinalis (DIGSA); assay: Pre-emergence herbicidal action against DIGSA
How it was run: as §3

[14] = test system: Echinochloa crus-galli (ECHCG); assay: Pre-emergence herbicidal action against ECHCG; settings: dosage 320 g/ha
How it was run: as §3

Lolium rigidum (LOLRI) [15] = assay: Pre-emergence herbicidal action against LOLRI; settings: dosage 320 g/ha
How it was run: as §3

[16] = test system: Matricaria inodora (MATIN); assay: Pre-emergence herbicidal action against MATIN
How it was run: as §3

[17] = test system: Polygonum convolvulus (POLCO); assay: Pre-emergence herbicidal action against POLCO; settings: dosage 320 g/ha
How it was run: as §3

Setaria viridis (SETVI) [18] = assay: Pre-emergence herbicidal action against SETVI; settings: dosage 320 g/ha
How it was run: as §3

[19] = test system: Verconica persica (VERPE); assay: Pre-emergence herbicidal action against VERPE; settings: dosage 320 g/ha
How it was run: as §3

Viola tricolor (VIOTR) [20] = assay: Pre-emergence herbicidal action against VIOTR; settings: 320 g/ha, Viola tricolor
How it was run: as §3

Brassica napus (BRSNW) = settings: crop plant compatibility, in comparison to untreated controls
How it was run: (§4)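 Crop injury rated visually in percent against untreated plants roughly 3 weeks after treatment (0% no effect, 100% plants dead). Compounds, as WP or EC with 0.5% additive in 600 l/ha water, were applied to the covering soil right after sowing; greenhouse growth. Suffixes a, b, c denote different dosages.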

Glycine max (GLXMA) [21] = settings: crop plant compatibility
How it was run: as §4

Oryza sativa (ORYSA) [22] = settings: crop plant compatibility
How it was run: as §4

[23] = test system: Triticum aestivum (TRZAS); settings: crop plant compatibility
How it was run: as §4

Zea mays (ZEAMX) [24] = settings: 20 g/ha; crop plant compatibility, effect vs untreated controls
How it was run: as §4

[25] = test system: Alopecurus myosuroides (ALOMY); assay: Post-emergence herbicidal action against ALOMY; settings: visual rating about 3 weeks after treatment vs untreated controls (100% = plants have died, 0% = like control plants)
How it was run: as §1

Avena fatua (AVEFA) [26] = assay: Post-emergence herbicidal action against AVEFA; settings: visual rating about 3 weeks after treatment
How it was run: as §1

[27] = test system: Digitaria sanguinalis (DIGSA); assay: Post-emergence herbicidal action against DIGSA; settings: visual rating about 3 weeks after treatment
How it was run: as §1

Lolium rigidum (LOLRI) [28] = assay: Post-emergence herbicidal action against LOLRI; settings: dosage 320 g/ha
How it was run: as §1

Setaria viridis (SETVI) [29] = assay: Post-emergence herbicidal action against SETVI
How it was run: as §1

Oryza sativa (ORYSA) [30] = settings: crop plant compatibility; remark: listed apart in the source
How it was run: as §2

[31] = 20 g/ha, effect vs untreated controls
[32] = pre-emergence, 80 g/ha, in comparison to untreated controls

For `COC(=O)CCOC(=O)COc1nn(-c2ccccn2)c(-c2ccc(F)nc2)c1C1CC1(F)F` (centres unmarked) [Example I-261], the “Post-emergence action against ABUTH in %” value [1] was 80%, the “Post-emergence action against PHBPU in %” value [2] was 80% and the “Post-emergence action against POLCO in %” value [3] was 80%. For the same molecule, the “Post-emergence action against VERPE in %” value [4] was 80%, the “Post-emergence action against VIOTR in %” value (Viola tricolor (VIOTR) [5]) was 80% and the “Post-emergence action against TRZAS in %” value ([6]; 20 g/ha) was 0%. For the same molecule, the “Post-emergence action against TRZAS in %” value ([6]; 80 g/ha) was 0%, the “Post-emergence action against ZEAMX in % (crop plant compatibility)” value (Zea mays (ZEAMX) [7]) was 0% and the “Post-emergence action against ZEAMX in %” value (Zea mays (ZEAMX) [7]; crop plant compatibility, 80 g/ha, effect vs untreated controls) was 0%. For the same molecule, the “Post-emergence action against GLXMA in %” value (Glycine max (GLXMA) [8]) was 0%.
For `C[C@@H](Oc1nn(-c2ccc(F)cn2)c(-c2cncc(F)c2)c1Br)C(=O)O` [Example I-13], the “Pre-emergence action against ABUTH” value [9] was 90%, the “Pre-emergence action against ALOMY” value ([10]; 80 g/ha) was 90% and the “Pre-emergence action against ALOMY” value ([10]; 320 g/ha) was 100%. The “Pre-emergence action against AMARE in %” value ([11]; 80 g/ha) was 90%, the “Pre-emergence action against AMARE in %” value ([11]; 320 g/ha) was 100% and the “Pre-emergence action against AVEFA in %” value (Avena fatua (AVEFA) [12]) was 90%. The “Pre-emergence action against DIGSA in %” value ([13]; 80 g/ha, visual scoring after about 3 weeks vs untreated controls) was 100%, the “Pre-emergence action against DIGSA in %” value ([13]; dosage 320 g/ha) was 100% and the “Pre-emergence action against ECHCG in %” value [14] was 90%. The “Pre-emergence action against LOLRI in %” value (Lolium rigidum (LOLRI) [15]) was 90%, the “Pre-emergence action against MATIN in %” value ([16]; dosage 80 g/ha) was 80% and the “Pre-emergence action against MATIN in %” value ([16]; dosage 320 g/ha) was 80%. The “Pre-emergence action against POLCO in %” value [17] was 100%, the “Pre-emergence action against SETVI in %” value (Setaria viridis (SETVI) [18]) was 90% and the “Pre-emergence action against VERPE in %” value [19] was 80%. For the same molecule, the “Pre-emergence action against VIOTR in %” value (Viola tricolor (VIOTR) [20]) was 90%, the “Pre-emergence action against BRSNW in %” value (Brassica napus (BRSNW); 20 g/ha) was 10% and the “Pre-emergence action against BRSNW in %” value (Brassica napus (BRSNW); 80 g/ha) was 10%. For the same molecule, the “Pre-emergence action against BRSNW in %” value (Brassica napus (BRSNW); 320 g/ha) was 20%, the “Pre-emergence action against GLXMA” value (Glycine max (GLXMA) [21]; [31]) was 10% and the “Pre-emergence action against GLXMA in %” value (Glycine max (GLXMA) [21]; [32]) was 10%. The “Pre-emergence action against ORYSA” value (Oryza sativa (ORYSA) [22]; [31]) was 0%, the “Pre-emergence action against ORYSA in %” value (Oryza sativa (ORYSA) [22]; [32]) was 10% and the “Pre-emergence action against TRZAS” value [23, 31] was 10%. The “Pre-emergence action against TRZAS in %” value [23, 32] was 20%, the “Pre-emergence action against ZEAMX” value (Zea mays (ZEAMX) [24]) was 10% and the “Post-emergence action against ALOMY in %” value ([25]; 80 g/ha) was 90%. The “Post-emergence action against ALOMY in %” value ([25]; 320 g/ha) was 90%, the “Post-emergence action against AVEFA in %” value (Avena fatua (AVEFA) [26]; 80 g/ha) was 80% and the “Post-emergence action against AVEFA in %” value (Avena fatua (AVEFA) [26]; 320 g/ha) was 90%. For the same molecule, the “Post-emergence action against DIGSA in %” value ([27]; 80 g/ha) was 90%, the “Post-emergence action against DIGSA in %” value ([27]; 320 g/ha) was 90% and the “Post-emergence action against LOLRI in %” value (Lolium rigidum (LOLRI) [28]) was 90%. For the same molecule, the “Post-emergence action against SETVI in %” value (Setaria viridis (SETVI) [29]; dosage 80 g/ha) was 80%, the “Post-emergence action against SETVI in %” value (Setaria viridis (SETVI) [29]; dosage 320 g/ha) was 90% and the “Post-emergence action against VERPE in %” value [4] was 80%. For the same molecule, the “Post-emergence action against VIOTR in %” value (Viola tricolor (VIOTR) [5]) was 80%, the “Post-emergence action against ORYSA in %” value (Oryza sativa (ORYSA) [30]; [31]) was 0% and the “Post-emergence action against ORYSA in %” value (Oryza sativa (ORYSA) [30]; 80 g/ha, effect in comparison to untreated controls) was 10%. For the same molecule, the “Post-emergence action against ZEAMX in % (crop plant compatibility)” value (Zea mays (ZEAMX) [7]) was 0%.

From patent publication US20240041042A1, “1-(PYRIDYL)-5-AZINYLPYRAZOLE DERIVATIVES, AND THEIR USE FOR CONTROL OF UNDESIRED PLANT GROWTH” (Bayer Aktiengesellschaft, priority 2020, published 2024)
